The values that follow come from US20120083471A1, “Novel Compounds, Pharmaceutical Compositions Containing Same, Methods of Use for Same, and Methods for Preparing Same” (priority 2008, published 2012).

One assay deals with T1, mtGPAT1 (Mus musculus, UniProt Q61586).
T1 construct: from tissue; host or cells: mitochondrial preparation
T1 sequence (Q61586 1-827): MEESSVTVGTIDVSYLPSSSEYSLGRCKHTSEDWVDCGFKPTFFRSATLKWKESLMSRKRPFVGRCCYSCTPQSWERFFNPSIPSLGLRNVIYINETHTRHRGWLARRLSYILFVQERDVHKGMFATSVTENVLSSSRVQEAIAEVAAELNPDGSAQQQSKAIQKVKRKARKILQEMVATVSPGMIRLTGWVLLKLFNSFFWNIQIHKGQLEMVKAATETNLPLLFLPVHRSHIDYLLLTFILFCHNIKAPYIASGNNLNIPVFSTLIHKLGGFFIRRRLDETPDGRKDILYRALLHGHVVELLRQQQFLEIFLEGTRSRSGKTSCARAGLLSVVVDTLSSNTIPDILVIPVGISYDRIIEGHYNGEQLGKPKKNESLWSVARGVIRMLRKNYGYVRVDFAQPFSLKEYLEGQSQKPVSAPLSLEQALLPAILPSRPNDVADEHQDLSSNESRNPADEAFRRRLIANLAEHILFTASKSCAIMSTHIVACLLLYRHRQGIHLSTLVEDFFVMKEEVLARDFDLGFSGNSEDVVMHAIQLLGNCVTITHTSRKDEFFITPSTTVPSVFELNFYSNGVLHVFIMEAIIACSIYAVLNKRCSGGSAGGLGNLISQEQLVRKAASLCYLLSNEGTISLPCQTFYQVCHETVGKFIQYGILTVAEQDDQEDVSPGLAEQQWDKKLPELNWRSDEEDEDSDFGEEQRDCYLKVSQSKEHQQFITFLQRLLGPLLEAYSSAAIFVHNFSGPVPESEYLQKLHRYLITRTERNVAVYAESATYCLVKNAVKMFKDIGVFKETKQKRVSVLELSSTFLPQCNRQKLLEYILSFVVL
Briefly: In vitro mtGPAT inhibition: acylation of 14C-glycerol 3-phosphate with palmitoyl-CoA, scintillation counting. Type of assay: biochemical. Here is the method: The compounds produced as described above were evaluated for their ability to inhibit the acylation of glycerol-3-phosphate in vitro. The acylation reaction between ^14C-labelled glycerol-3-phosphate and palmitoyl-CoA, initiated by adding mtGPAT, was measured in the presence of varying concentrations of the inhibitor by scintillation counting as described in more detail below.
A mitochondrial preparation of glycerol 3-phosphate acyltransferase was added to the incubation mixture containing ^14C-labeled glycerol 3-phosphate, palmitoyl-CoA, and varying inhibitor concentrations to initiate the reaction. After ten min, the reaction was terminated by adding chloroform, methanol, and 1% perchloric acid. Five minutes later, more chloroform and perchloric acid were added, and the upper aqueous layer was removed. After washing three times with 1% perchloric acid, the organic layer was evaporated under nitrogen, and the amount of ^14C present was counted to determine the extent of reaction inhibition. Data points were recorded in triplicate, and IC50 values were calculated based on the amount of test inhibitor necessary to produce 50% of mtGPAT activity observed in the absence of inhibitor but in the presence of DMSO vehicle control.

A further assay relates to FAO. Briefly: FAO (SC 150 and Max) entries of the compound data sheets.
Where [1] appears, read: compounds 4a-t and 7a-t, read-out: GPAT IC50.
Setting [2] is: Table 1, sulfonamides 5a-f and 13a-f, triplicate, read-out: IC50 (μM) ± SD, In Vitro Anti-mtGPAT1 Activity.
[3] abbreviates: Table 2, sulfonamides 15a-i and 17a-f, triplicate, read-out: IC50 (μM) ± SD, In Vitro Anti-mtGPAT1 Activity.
The mark [4] stands for this setting: Table 3, sulfonamides 21a-c and 24a-f, triplicate, read-out: IC50 (μM) ± SD, In Vitro Anti-mtGPAT1 Activity.

As usually defined, the IC50 is the concentration that gives 50% inhibition.

Structures are written as SMILES. Where two headings read alike, the source gives them in different places.

Regarding `CCCCCCCCS(=O)(=O)Nc1cc(-c2ccc(Cl)cc2)ccc1C(=O)O`, the IC50 at mtGPAT1 (setting [1]) came to 18.4 µM. Besides, the “FAO SC 150” value with FAO was “FAS (IC50) Not Tested CPT I Stim Not Tested FAO SC 150 Neg SA/MH (MIC) ug/ml”.

Regarding `CCCCCCCCS(=O)(=O)Nc1cc(-c2cccc(Cl)c2)ccc1C(=O)O`, the IC50 at mtGPAT1 (setting [1]) came out at 16 µM. Besides, the “FAO SC 150” value in the assay with FAO is listed as “FAS (IC50) Not Tested CPT I Stim Not Tested FAO SC 150 Neg SA/MH (MIC) ug/ml”. In the same order, the values of `CCCCCCCCS(=O)(=O)Nc1cc(-c2cccs2)ccc1C(=O)O` are 22.5 µM and “FAS (IC50) Not Tested CPT I Stim Not Tested FAO SC 150 Neg SA/MH (MIC) ug/ml”. For the compound `CCCCCCCCS(=O)(=O)Nc1cc(-c2cccnc2)ccc1C(=O)O`, the IC50 on mtGPAT1 (setting [1]) came to 65.8 µM. Further, in the assay on FAO, the “FAO SC 150” value was “FAS (IC50) Not Tested CPT I Stim Not Tested FAO SC 150 Neg SA/MH (MIC) ug/ml”. For `CCCCCCCCS(=O)(=O)Nc1cc(-c2ccc(-c3ccccc3)cc2)ccc1C(=O)O` the same measures were 17.4 µM and “FAS (IC50) Not Tested CPT I Stim Not Tested FAO SC 150 Neg SA/MH (MIC) ug/ml”. Take `CCCCCCCCS(=O)(=O)Nc1cc(-c2ccccc2-c2ccccc2)ccc1C(=O)O`: the IC50 at mtGPAT1 (setting [1]) was 18 µM. Also, the “FAO SC 150” value with FAO is given as “FAS (IC50) Not Tested CPT I Stim Not Tested FAO SC 150 Neg SA/MH (MIC) ug/ml”.

For `CCCCCCCCS(=O)(=O)Nc1cc(-c2ccccc2OC)ccc1C(=O)O`, on mtGPAT1 (setting [1]), the IC50 amounted to 17.6 µM. Besides, the “FAO SC 150” value in the assay with FAO is recorded as “FAS (IC50) Not Tested CPT I Stim Not Tested FAO SC 150 Neg SA/MH (MIC) ug/ml”. For `CCCCCCCCS(=O)(=O)Nc1cc(-c2ccc(OC)cc2)ccc1C(=O)O`, the half-maximal inhibitory concentration (IC50) at mtGPAT1 (setting [1]) is 16 µM. In the assay with FAO, the “FAO SC 150” value is “FAS (IC50) Not Tested CPT I Stim Not Tested FAO SC 150 Neg SA/MH (MIC) ug/ml”. In the same order, the values of `CCCCCCCCS(=O)(=O)Nc1ccc(-c2ccc(Cl)cc2)cc1C(=O)O` are 13.4 µM and “FAS (IC50) Not Tested CPT I Stim Not Tested FAO SC 150 Neg SA/MH (MIC) ug/ml”. Consider `CCCCCCCCS(=O)(=O)Nc1ccc(-c2cccc(Cl)c2)cc1C(=O)O`, for which, on mtGPAT1 (setting [1]), the half-maximal inhibitory concentration (IC50) is 13 µM. Moreover, in the assay on FAO, the “FAO SC 150” value is listed as “FAS (IC50) Not Tested CPT I Stim Not Tested FAO SC 150 Neg SA/MH (MIC) ug/ml”. In the same order, the values of `CCCCCCCCS(=O)(=O)Nc1ccc(-c2ccccc2Cl)cc1C(=O)O` are 14.4 µM and “FAS (IC50) Not Tested CPT I Stim Not Tested FAO SC 150 Neg SA/MH (MIC) ug/ml”.

On to `CCCCCCCCS(=O)(=O)Nc1ccc(-c2cccc(C(C)=O)c2)cc1C(=O)O`, for which the IC50 at mtGPAT1 (setting [1]) was 28 µM. The “FAO SC 150” value in the assay with FAO is recorded as “FAS (IC50) Not Tested CPT I Stim Not Tested FAO SC 150 Neg SA/MH (MIC) ug/ml”. For `CCCCCCCCS(=O)(=O)Nc1ccc(-c2ccc(C(C)=O)cc2)cc1C(=O)O` the same measures were 702 µM and “FAS (IC50) Not Tested CPT I Stim Not Tested FAO SC 150 Neg SA/MH (MIC) ug/ml”. Regarding `CCCCCCCCS(=O)(=O)Nc1ccc(-c2ccccc2-c2ccccc2)cc1C(=O)O`, the IC50 at mtGPAT1 (setting [1]) amounted to 13.5 µM. Besides, in the assay on FAO, the “FAO SC 150” value is recorded as “FAS (IC50) Not Tested CPT I Stim Not Tested FAO SC 150 Neg SA/MH (MIC) ug/ml”. As to `CCCCCCCCS(=O)(=O)Nc1ccc(-c2cccc(O)c2)cc1C(=O)O`, the IC50 on mtGPAT1 (setting [1]) is 57.7 µM. `CCCCCCCCS(=O)(=O)Nc1ccc(-c2ccc(F)cc2)cc1C(=O)O`: the IC50 at mtGPAT1 (setting [1]) is 20.6 µM.

`CCCCCCCCS(=O)(=O)Nc1ccc(-c2cc(Cl)cc(Cl)c2)cc1C(=O)O`: the IC50 at mtGPAT1 (setting [1]) was found to be 19 µM.

As for `CCCCCCCCS(=O)(=O)Nc1cc(-c2ccccc2F)ccc1C(=O)O`, the IC50 on mtGPAT1 (setting [1]) turned out to be 55.7 µM. Same read-out and setting: the result for `CCCCCCCCS(=O)(=O)Nc1cc(-c2cccc(F)c2)ccc1C(=O)O` reads 28.7 µM. On to `CCCCCCCCS(=O)(=O)Nc1cc(-c2ccc(F)cc2)ccc1C(=O)O`, for which, on mtGPAT1 (setting [1]), the IC50 was 25.3 µM.

Regarding `CCCCCCCCS(=O)(=O)Nc1cc(-c2cc(Cl)cc(Cl)c2)ccc1C(=O)O`, the IC50 on mtGPAT1 (setting [1]) was found to be 19.2 µM.

In the case of `CCCCCCCCS(=O)(=O)Nc1cc(-c2ccc(Cl)cc2Cl)ccc1C(=O)O`, the IC50 on mtGPAT1 (setting [1]) was found to be 18.3 µM. The same measure, in the same setting: to `CCCCCCCCS(=O)(=O)Nc1cc(-c2ccccc2O)ccc1C(=O)O` belongs 62.6 µM; to `CCCCCCCCS(=O)(=O)Nc1cc(-c2cccc(O)c2)ccc1C(=O)O`, 55.5 µM. For `CCCCCCCCS(=O)(=O)Nc1ccc(-c2ccc(O)cc2)cc1C(=O)O`, the IC50 on mtGPAT1 (setting [1]) was determined as 60.9 µM. Same read-out and setting: the result for `CCCCCCCCS(=O)(=O)Nc1cc(-c2ccc(O)cc2)ccc1C(=O)O` reads 66.1 µM. As for `CCCCCS(=O)(=O)Nc1ccccc1CP(=O)(O)O` [Compound 13a, 2-(Pentylsulfonamido)benzylphosphonic acid], the IC50 on mtGPAT1 (setting [2]) is 41.4 ± 8.4 µM. Still for that read-out and setting: the result for `CCCCCCCCCS(=O)(=O)Nc1ccccc1CP(=O)(O)O` [Compound 13b, 2-(Nonylsulfonamido)benzylphosphonic acid] reads 30.6 µM; that for `CCCCCCCCCS(=O)(=O)Nc1ccc(CP(=O)(O)O)cc1` [Compound 13f, 4-(Nonylsulfonamido)benzylphosphonic acid], 30.7 µM. In the case of `CCCCCCCCCS(=O)(=O)Nc1ccc(C(=O)O)cc1` [Compound 15a, 4-(Nonylsulfonamido)benzoic acid], the IC50 on mtGPAT1 (setting [3]) amounted to 29.1 ± 4.3 µM. For `O=C(O)c1ccc(NS(=O)(=O)c2ccccc2)cc1` [Compound 15b, 4-(Phenylsulfonamido)benzoic acid], the IC50 on mtGPAT1 (setting [3]) amounted to 41.9 ± 5.3 µM.

Turning to `O=C(O)c1ccc(NS(=O)(=O)c2ccc(Cl)cc2)cc1` [Compound 15c, 4-(4-Chlorophenylsulfonamido)benzoic acid], the IC50 at mtGPAT1 (setting [3]) was determined as 33.7 ± 1.3 µM.

As for `O=C(O)c1cccc(NS(=O)(=O)c2ccccc2)c1` [Compound 15e, 3-(Phenylsulfonamido)benzoic acid], at mtGPAT1 (setting [3]), the concentration for half-maximal inhibition (IC50) came to 38.3 ± 7.6 µM. Regarding `O=C(O)c1cccc(NS(=O)(=O)c2ccc(Cl)cc2)c1` [Compound 15f, 3-(4-Chlorophenylsulfonamido)benzoic acid], at mtGPAT1 (setting [3]), the IC50 was 23.6 ± 1.2 µM. On the same count and under the same terms, the result for `O=C(O)c1ccccc1NS(=O)(=O)c1ccc(Cl)cc1` [Compound 15i, 2-(4-Chlorophenylsulfonamido)benzoic acid] reads 33.5 ± 2.5 µM; that for `O=C(O)c1ccc(NS(=O)(=O)Cc2ccccc2)cc1` [Compound 17a, 4-(Phenylmethylsulfonamido)benzoic acid], 64.5 ± 11.6 µM. With `O=C(O)c1ccc(NS(=O)(=O)CCc2ccccc2)cc1` [Compound 17b, 4-(2-Phenylethylsulfonamido)benzoic acid], the IC50 at mtGPAT1 (setting [3]) is 63 ± 12.9 µM. The same measure, in the same setting: the result for `O=C(O)c1cccc(NS(=O)(=O)Cc2ccccc2)c1` [Compound 17c, 3-(Phenylmethylsulfonamido)benzoic acid] reads 52.1 ± 9 µM. Still for that read-out and setting: to `O=C(O)c1cccc(NS(=O)(=O)CCc2ccccc2)c1` [Compound 17d, 3-(2-Phenylethylsulfonamido)benzoic acid] belongs 50.3 ± 4.4 µM; to `O=C(O)c1ccccc1NS(=O)(=O)Cc1ccccc1` [Compound 17e, 2-(Phenylmethylsulfonamido)benzoic acid], 40.7 ± 1.2 µM; to `O=C(O)c1ccccc1NS(=O)(=O)CCc1ccccc1` [Compound 17f, 2-(2-Phenylethylsulfonamido)benzoic acid], 46.4 ± 4.5 µM. As to `CCCCCCCCS(=O)(=O)Nc1ccc(P(=O)(O)O)cc1` [Compound 21a, 4-(Octylsulfonamido)phenylphosphonic acid], the IC50 at mtGPAT1 (setting [4]) is 33.3 ± 3.8 µM. The same measure, in the same setting: the result for `CCCCCCCCS(=O)(=O)Nc1cccc(P(=O)(O)O)c1` [Compound 21b, 3-(Octylsulfonamido)phenylphosphonic acid] reads 25.3 ± 5.4 µM. On to `CCCCCCCCS(=O)(=O)Nc1ccccc1P(=O)(O)O` [Compound 21c, 2-(Octylsulfonamido)phenylphosphonic acid], for which the IC50 at mtGPAT1 (setting [4]) stood at 25.7 ± 2.5 µM. As to `CS(=O)(=O)Nc1ccccc1C(=O)O` [Compound 24a, 2-(Methylsulfonamido)benzoic acid], the IC50 at mtGPAT1 (setting [4]) amounted to 28.6 ± 4.6 µM. On the same count and under the same terms, the result for `CCCCCCCCCS(=O)(=O)Nc1ccc(Cl)cc1C(=O)O` [Compound 24d, 5-Chloro-2-(nonylsulfonamido)benzoic acid] reads 11.5 ± 0.7 µM.
